Test results reported in the SangsterLogP compilation.

assay: method code SF-HPLC, from DOI: 10.1002/qsar.19910100205; settings: pH 3.5

Point of comparison: O=C1CC(=O)N(Cc2ccccc2)C1, logD 0.76. Against it:
- O=C1NC(=O)C(Cc2ccccc2)O1 (configuration not stated) — higher, 1.2
- O=C1CN(Cc2ccccc2)C(=O)N1 — the same, 0.76
- O=C1NC(=O)C(c2ccccc2)O1 (configuration not stated) — higher, 1.09
- O=C1NC(=O)N(c2ccccc2)C1=O — within 0.2 log units, 0.6
- O=C1CC(=O)C(c2ccccc2)N1 (configuration not stated) — lower, 0.48
- O=C1CC(=O)C(c2ccccc2)O1 (configuration not stated) — higher, 1.07
- O=C1CC(=O)N(c2ccccc2)O1 — lower, 0.54
- O=C1CNC(=O)N1c1ccccc1 — lower, 0.04
- O=C1NC(=O)N(Cc2ccccc2)C1=O — higher, 1.19
- CC1(COc2ccc(CC3SC(=O)NC3=O)cc2)CCCCC1 (configuration not stated) — higher, 3.57
- O=C1NC(=O)C(Cc2ccccc2)S1 (configuration not stated) — higher, 1.98
- NS(=O)(=O)NC(=O)Cc1ccccc1 — lower, 0.31
- O=C1CN(c2ccccc2)C(=O)N1 — within 0.2 log units, 0.83
- O=C1CS(=O)(=O)C(c2ccccc2)N1 (configuration not stated) — lower, 0.18
- O=C1NC(=O)C(Cc2ccccc2)N1 (configuration not stated) — within 0.2 log units, 0.6
- O=c1[nH]c(=O)n(-c2ccccc2)o1 — higher, 1.68
